Values of other authors as cited in patent US20260301880A1, “NOSE-TO-BRAIN PHYSIOLOGICALLY BASED PHARMACOKINETIC MODEL” (APTARGROUP INC., priority 2023, published 2026).

Experiments:
[1] = literature value, porcine nasal mucosa
[2] = not given; remark: listed apart in the source
[3] = octanol/water
[4] = humans
[5] = not given; remark: listed apart in the source
[6] = healthy volunteers
[7] = clinical

PbAb - Permeability-surface area product between brain blood and brain mass [4] [L/h]	R - Blood/plasma ratio [5]	oral bioavailability [6]	reported nasal bioavailability [7] [%]	SMILES	P - Permeability in the nasal epithelium [1]	fu - fraction unbound in blood plasma	pKa (acid) ([2]; acid)	pKa (base) ([2]; base)	LogP [3]
				CN1C[C@H](C(=O)N[C@]2(C)O[C@@]3(O)[C@@H]4CCCN4C(=O)[C@H](Cc4ccccc4)N3C2=O)C[C@@H]2c3cccc4[nH]cc(c34)C[C@H]21 [DHE, dihydroergotamine]	1.48 × 10^−7	0.03	9.71	8.39	2
1.875				CC(=O)Nc1ccc(O)cc1 [paracetamol]					
	1	low	16	CNS(=O)(=O)Cc1ccc2[nH]cc(CCN(C)C)c2c1 [sumatriptan]		0.63			
